Read-outs that look alike come from different tables or passages of the source.
How the values were obtained:
Type in all cases: cell-based, human
[1] = tested on: Non-small cell lung cancer cell lines; assay: NCI anticancer screen, SRB assay, panel summary; settings: Homo sapiens
Summary of the method: (§1)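 Sulforhodamine B protein assay read cell growth after 48 h of continuous compound exposure. Dose-response curves per cell line used at least five 10-fold-diluted concentrations, within a panel of fifty-three human lines from nine tumour types.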

Renal cancer cell lines = assay: NCI anticancer screen, SRB assay, panel summary; settings: Homo sapiens
Summary of the method: as §1

[2] = tested on: Leukemia cancer cell lines; assay: NCI anticancer screen, SRB assay, panel summary; settings: Homo sapiens
Summary of the method: as §1

[3] = tested on: Prostate cancer cell lines; assay: NCI anticancer screen, SRB assay, panel summary
Summary of the method: as §1

[4] = tested on: Melanoma cancer cell lines; assay: NCI anticancer screen, SRB assay, panel summary; settings: for GI50: Homo sapiens
Summary of the method: as §1

[5] = tested on: Ovarian cancer cell lines; assay: NCI anticancer screen, SRB assay, panel summary; settings: Homo sapiens
Summary of the method: as §1

Breast cancer cell lines = assay: NCI anticancer screen, SRB assay, panel summary; settings: Homo sapiens
Summary of the method: as §1

CNS cancer cell lines = assay: NCI anticancer screen, SRB assay, panel summary; settings: for GI50: Homo sapiens
Summary of the method: as §1

Colon cancer cell lines = assay: NCI anticancer screen, SRB assay, panel summary; settings: for GI50: Homo sapiens
Summary of the method: as §1

TK-10 (renal) = assay: NCI anticancer screen, SRB assay, 48 h; settings: Homo sapiens
Summary of the method: as §1

HCC-2998 (colon) = assay: NCI anticancer screen, SRB assay, 48 h; settings: Homo sapiens
Summary of the method: as §1

PC-3 (prostate) = assay: NCI anticancer screen, SRB assay, 48 h; settings: Homo sapiens
Summary of the method: as §1

OVCAR-5 (ovarian) = assay: NCI anticancer screen, SRB assay, 48 h; settings: Homo sapiens
Summary of the method: as §1

CAKI-1 (renal) = assay: NCI anticancer screen, SRB assay, 48 h; settings: Homo sapiens
Summary of the method: as §1

OVCAR-3 (ovarian) = assay: NCI anticancer screen, SRB assay, 48 h; settings: Homo sapiens
Summary of the method: as §1

UO-31 (renal) = assay: NCI anticancer screen, SRB assay, 48 h; settings: Homo sapiens
Summary of the method: as §1

SK-MEL-5 (melanoma) = assay: NCI anticancer screen, SRB assay, 48 h; settings: Homo sapiens
Summary of the method: as §1

SK-MEL-2 (melanoma) = assay: NCI anticancer screen, SRB assay, 48 h; settings: Homo sapiens
Summary of the method: as §1

MDA-MB-435 (melanoma) = assay: NCI anticancer screen, SRB assay, 48 h; settings: Homo sapiens
Summary of the method: as §1

HCT-15 (colon) = assay: NCI anticancer screen, SRB assay, 48 h; settings: Homo sapiens
Summary of the method: as §1

A498 (renal) = assay: NCI anticancer screen, SRB assay, 48 h; settings: Homo sapiens
Summary of the method: as §1

BT-549 (breast) = assay: NCI anticancer screen, SRB assay, 48 h; settings: Homo sapiens
Summary of the method: as §1

[6] = tested on: NCI-H23 (non-small cell lung); assay: NCI anticancer screen, SRB assay, 48 h; settings: Homo sapiens
Summary of the method: as §1

[7] = tested on: NCI-H522 (non-small cell lung); assay: NCI anticancer screen, SRB assay, 48 h; settings: Homo sapiens
Summary of the method: as §1

TD-47D (breast) = assay: NCI anticancer screen, SRB assay, 48 h; settings: Homo sapiens
Summary of the method: as §1

COLO 205 (colon) = assay: NCI anticancer screen, SRB assay, 48 h; settings: Homo sapiens, COLO 205
Summary of the method: as §1

[8] = tested on: HOP-92 (non-small cell lung); assay: NCI anticancer screen, SRB assay, 48 h; settings: Homo sapiens
Summary of the method: as §1

SF-539 (CNS) = assay: NCI anticancer screen, SRB assay, 48 h; settings: Homo sapiens
Summary of the method: as §1

[9] = tested on: NCI-H322M (non-small cell lung); assay: NCI anticancer screen, SRB assay, 48 h; settings: Homo sapiens
Summary of the method: as §1

[10] = tested on: EKVX (non-small cell lung); assay: NCI anticancer screen, SRB assay, 48 h; settings: Homo sapiens
Summary of the method: as §1

KM12 (colon) = assay: NCI anticancer screen, SRB assay, 48 h; settings: Homo sapiens
Summary of the method: as §1

SN12C (renal) = assay: NCI anticancer screen, SRB assay, 48 h; settings: Homo sapiens, SN12C
Summary of the method: as §1

[11] = tested on: A549/ATCC (non-small cell lung); assay: NCI anticancer screen, SRB assay, 48 h; settings: Homo sapiens
Summary of the method: as §1

[12] = 48 h exposure, SRB, read-out: GI50
[13] = read-out: pGI50 (-log of molar concentration causing 50% inhibition of net cell growth) (converted)

COc1cc(/C=C/C(=O)c2cccc(-n3cc(-c4ccccc4)[nH]c3=O)c2)cc(OC)c1OC [5a, 4-phenyl-1-3-[(E)-3-(3,4,5-trimethoxyphenyl)-2-propenoyl]phenyl-2,3-dihydro-1H-2-imidazolone]
GI50 ([1]; Non-small cell lung panel, log of concentration in mol/L causing 50% inhibition of net cell growth, read-out: mean graph midpoint (MG_MID) of Log10 GI50 (converted)): 3090 nM
LC50 ([1]; Non-small cell lung panel, log of concentration leading to 50% net cell death, read-out: mean graph midpoint (MG_MID) of Log10 LC50 (converted)): 32400 nM
GI50 ([1]; nine non-small cell lung cancer cell lines, exposure at least 48 hrs, read-out: GI50, range over the panel): 950 to 14600 nM
GI50 (Renal cancer cell lines; Renal panel, log of concentration in mol/L causing 50% inhibition of net cell growth, read-out: mean graph midpoint (MG_MID) of Log10 GI50 (converted)): 1910 nM
LC50 (Renal cancer cell lines; Renal panel, log of concentration leading to 50% net cell death, read-out: mean graph midpoint (MG_MID) of Log10 LC50 (converted)): 17000 nM
GI50 (Renal cancer cell lines; eight renal cancer cell lines, exposure at least 48 hrs, read-out: GI50, range over the panel): 1380 to 3020 nM
GI50 ([2]; Leukemia panel, log of concentration in mol/L causing 50% inhibition of net cell growth, read-out: mean graph midpoint (MG_MID) of Log10 GI50 (converted)): 562 nM
LC50 ([2]; Leukemia panel, log of concentration leading to 50% net cell death, read-out: mean graph midpoint (MG_MID) of Log10 LC50 (converted)): ≥ 100000 nM
GI50 ([2]; two leukemia cancer cell lines (RPMI-8226 and K-562), exposure at least 48 hrs, read-out: GI50, range over the panel): 500 to 620 nM
GI50 ([3]; Homo sapiens, log of concentration in mol/L causing 50% inhibition of net cell growth, read-out: mean graph midpoint (MG_MID) of Log10 GI50 (converted)): 3240 nM
LC50 ([3]; Homo sapiens, log of concentration leading to 50% net cell death, read-out: mean graph midpoint (MG_MID) of Log10 LC50 (converted)): ≥ 100000 nM
mean graph midpoint (MG_MID) of Log10 TGI ([3]; log of concentration resulting in total inhibition of net cell growth): 4.68
GI50 ([4]; Melanoma panel, log of concentration in mol/L causing 50% inhibition of net cell growth, read-out: mean graph midpoint (MG_MID) of Log10 GI50 (converted)): 1320 nM
GI50 ([4]; nine melanoma cancer cell lines, exposure at least 48 hrs, read-out: GI50, range over the panel): 480 to 2060 nM
mean graph midpoint (MG_MID) of Log10 LC50 ([4]; Melanoma panel, log of concentration leading to 50% net cell death): 5.02
GI50 ([5]; Ovarian panel, log of concentration in mol/L causing 50% inhibition of net cell growth, read-out: mean graph midpoint (MG_MID) of Log10 GI50 (converted)): 1740 nM
LC50 ([5]; Ovarian panel, log of concentration leading to 50% net cell death, read-out: mean graph midpoint (MG_MID) of Log10 LC50 (converted)): 42700 nM
GI50 ([5]; six ovarian cancer cell lines, exposure at least 48 hrs, read-out: GI50, range over the panel): 1100 to 3270 nM
GI50 (Breast cancer cell lines; Breast panel, log of concentration in mol/L causing 50% inhibition of net cell growth, read-out: mean graph midpoint (MG_MID) of Log10 GI50 (converted)): 1580 nM
LC50 (Breast cancer cell lines; Breast panel, log of concentration leading to 50% net cell death, read-out: mean graph midpoint (MG_MID) of Log10 LC50 (converted)): 38000 nM
GI50 (Breast cancer cell lines; five breast cancer cell lines, exposure at least 48 hrs, read-out: GI50, range over the panel): 310 to 3410 nM
mean graph midpoint (MG_MID) of Log10 LC50 (CNS cancer cell lines; CNS panel, log of concentration leading to 50% net cell death): 5.13
GI50 (CNS cancer cell lines; CNS panel, log of concentration in mol/L causing 50% inhibition of net cell growth, read-out: mean graph midpoint (MG_MID) of Log10 GI50 (converted)): 1860 nM
GI50 (CNS cancer cell lines; six CNS cancer cell lines, exposure at least 48 hrs, read-out: GI50, range over the panel): 630 to 4470 nM
mean graph midpoint (MG_MID) of Log10 LC50 (Colon cancer cell lines; Colon panel, log of concentration leading to 50% net cell death): 5.23
GI50 (Colon cancer cell lines; Colon panel, log of concentration in mol/L causing 50% inhibition of net cell growth, read-out: mean graph midpoint (MG_MID) of Log10 GI50 (converted)): 832 nM
GI50 (Colon cancer cell lines; seven colon cancer cell lines, exposure at least 48 hrs, read-out: GI50, range over the panel): 330 to 1510 nM
GI50 (TK-10 (renal); [12]): 3020 nM
GI50 (TK-10 (renal); [13]): 3020 nM
GI50 (HCC-2998 (colon); [12]): 1260 nM
GI50 (HCC-2998 (colon); [13]): 1260 nM
GI50 (PC-3 (prostate); PC-3, read-out: pGI50 (-log of molar concentration causing 50% inhibition of net cell growth) (converted)): 3240 nM
GI50 (PC-3 (prostate); one prostate cancer cell line (PC-3), exposure at least 48 hrs, read-out: GI50): 3260 nM
GI50 (OVCAR-5 (ovarian); [12]): 1880 nM
GI50 (OVCAR-5 (ovarian); [13]): 1860 nM
GI50 (CAKI-1 (renal); [12]): 1750 nM
GI50 (CAKI-1 (renal); [13]): 1740 nM
GI50 (OVCAR-3 (ovarian); [12]): 1230 nM
GI50 (OVCAR-3 (ovarian); [13]): 1230 nM
GI50 (UO-31 (renal); [12]): 1510 nM
GI50 (UO-31 (renal); [13]): 1510 nM
GI50 (SK-MEL-5 (melanoma); [12]): 1400 nM
GI50 (SK-MEL-5 (melanoma); [13]): 1410 nM
GI50 (SK-MEL-2 (melanoma); [12]): 2060 nM
GI50 (SK-MEL-2 (melanoma); [13]): 2040 nM
GI50 (MDA-MB-435 (melanoma); [12]): 1200 nM
GI50 (MDA-MB-435 (melanoma); [13]): 1200 nM
GI50 (HCT-15 (colon); [12]): 1130 nM
GI50 (HCT-15 (colon); [13]): 1120 nM
GI50 (A498 (renal); [12]): 2650 nM
GI50 (A498 (renal); [13]): 2630 nM
GI50 (BT-549 (breast); [12]): 1930 nM
GI50 (BT-549 (breast); [13]): 1950 nM
GI50 [6, 12]: 1430 nM
GI50 [6, 13]: 1450 nM
GI50 [7, 12]: 950 nM
GI50 [7, 13]: 955 nM
GI50 (TD-47D (breast); [12]): 2190 nM
GI50 (TD-47D (breast); [13]): 2190 nM
GI50 (COLO 205 (colon); COLO205, read-out: pGI50 (-log of molar concentration causing 50% inhibition of net cell growth) (converted)): 1510 nM
GI50 (COLO 205 (colon); [12]): 1510 nM
GI50 [8, 12]: 10800 nM
GI50 [8, 13]: 10700 nM
GI50 (SF-539 (CNS); [12]): 1680 nM
GI50 (SF-539 (CNS); [13]): 1700 nM
GI50 [9, 12]: 2020 nM
GI50 [9, 13]: 2040 nM
GI50 [10, 12]: 2300 nM
GI50 [10, 13]: 2290 nM
GI50 (KM12 (colon); [12]): 1370 nM
GI50 (KM12 (colon); [13]): 1380 nM
GI50 (SN12C (renal); SN 12C, read-out: pGI50 (-log of molar concentration causing 50% inhibition of net cell growth) (converted)): 2090 nM
GI50 (SN12C (renal); [12]): 2090 nM
GI50 [11, 12]: 4030 nM
GI50 [11, 13]: 4070 nM
